Data published in patent publication US12428433B2, “Fluorine-containing heterocyclic derivatives with macrocyclic structure and use thereof” (ScinnoHub Pharmaceutical Co., Ltd, priority 2019, dated 2025).

Columns and labels:
TRKA(G595R) = TRKA(G595R) (Homo sapiens (Human), UniProt P04629, G595R); test: Kinase inhibitory activity (Caliper mobility shift), TRKA(G595R); format: biochemical
Description: (§1) […] (Shanghai) Co., Ltd. was commissioned to complete the testing example. […] 3.1 A tested compound was accurately weighed and dissolved in 100% DMSO to prepare into a 10 mM solution. […] 3.2.3 A kinase solution of 2.5 times final concentration was prepared with 1×kinase buffer. […] 3.2.5 The reaction plate was shaken and mixed evenly, and then incubated at room temperature for 10 minutes. 3.2.6 Mixed solutions of ATP and kinase substrate 22 of 5 times and 3 times final concentrations were prepared with 1×kinase buffer. 3.2.7 15 μL of mixed solution of ATP and substrate of 5 times or 3 times final concentration was added. 3.2.8 The 384-well plate was centrifuged at 1,000 rpm for 30 seconds, shaken and mixed evenly, and then incubated at room temperature for corresponding time. 3.2.9 The kinase reaction was terminated. 3.2.10 A conversion rate was read by the microplate reader Caliper EZ Reader. Calculation Formula Inhibition rate %=(conversion rate % maximum-conversion rate % sample)/(conversion rate % maximum-conversion rate % minimum)×100 wherein the conversion rate % sample was: a reading number of a conversion rate of a sample; the conversion rate % minimum was: an average value of the negative control well, which represented a reading number of a conversion rate without an enzyme activity well; and the conversion rate % maximum was: an average value of a ratio of the positive control well, which represented a reading number of a conversion rate without a compound inhibition well.

TRKa = TRKa (Homo sapiens (Human), UniProt P04629); test: Kinase inhibitory activity (Caliper mobility shift), TRKa; format: biochemical
Description: as §1

Ba/F3-LMNA-NTRK1-G667S = test: In-vitro cell viability (CellTiter-Glo), BaF3 cell lines; format: cell-based; details: Mus musculus, 72 hours
Description: (§2) Hefei Precedo Biomedical Technology Co., Ltd. was commissioned to complete the testing example, and the cell lines used were constructed by this company.
(§3) In-vitro anti-proliferative effects of the compound of the present application on 6 BaF3 cell lines were measured.
(§4) 6 Ba/F3 cell lines were cultured with RPMI 1640 (Biological Industries, Israel)+10% fetal calf serum (Biological Industries, Israel)+1% double antibiotics (Penicillin Streptomycin solution, Coring, USA), and cells were cultured for two generations after resuscitation, to be tested.
(§5) The to-be-tested compound was prepared into 10 mM mother solution with DMSO, and then diluted to 1 mM with DMSO. The solution was diluted by 3 times to prepare into 1.0000 mM, 0.3333 mM, 0.1111 mM, 0.03704 mM, 0.01235 mM, 0.00412 mM, 0.00137 mM, 0.00046 mM, 0.00015 mM, and […], and stored in a 96-well drug plate (Beaver, Suzhou), with 10 concentration gradients in total. Meanwhile, an equal volume of DMSO solvent was used as a negative control.
(§6) The prepared 1,000× compounds of 10 concentration gradients were respectively diluted by 50 times into 20× compounds with complete medium, and stored in a 96-well drug plate (Beaver, Suzhou), with 10 concentration gradients in total. Meanwhile, an equal volume of DMSO solvent was used as a negative control.
(§7) Cell suspension in logarithmic growth phase was inoculated on a 96-well white cell culture plate (Corning 3917, NY, USA), and a volume of each well was 95 μl (about 2000 cells/well).
(§8) 5 μl of 20× to-be-tested compounds were respectively added into the culture plate containing 95 μl of cell suspension above, and mixed evenly, with 2 wells for each concentration gradient. Final concentrations of the to-be-tested compounds were 1.0000 μM, 0.3333 μM, 0.1111 μM, 0.03704 μM, 0.01235 μM, 0.00412 μM, 0.00137 μM, 0.00046 μM, 0.00015 μM, and […] respectively.
(§9) Incubation was carried out in an incubator at 37° C. under 5% CO2 for 72 hours.
(§10) The following steps were carried out according to the instruction of Promega CellTiter-Glo Luminescence Cell Viability Assay Kit (Promega-G7573).
(§11) A corresponding […] value RLU of each well was obtained through reading by SpectraMax Paradigm. Cell viability data was processed by the following formula:
(§12) Cell viability(%)=(RLUDrug−RLUMin)/(RLUMax−RLUMin)*100%. Cell viabilities of compounds of different concentrations were calculated in EXCEL, then cell viability curves were made by GraphPad Prism software, and related parameters were calculated. The parameters comprised a maximum cell viability, a minimum cell viability, and an IC50 value.

Ba/F3-LMNA-NTRK1-F589L = test: as above; format: cell-based; details: Mus musculus, 72 hours
Description: as §2, §3, §4, §5, §6, §7, §8, §9, §10, §11, §12

Ba/F3-LMNA-NTRK1-V573I = test: as above; format: cell-based; details: Mus musculus, 72 hours
Description: as §2, §3, §4, §5, §6, §7, §8, §9, §10, §11, §12

Ba/F3-TEL-NTRK2 = test: as above; format: cell-based; details: Mus musculus, 72 hours
Description: as §2, §3, §4, §5, §6, §7, §8, §9, §10, §11, §12

[1] = Stability test in liver microsomes, mouse; format: in vitro ADME; details: for half-life at 1 μM: 0.5 mg/mL
Description: (§13) A stability of the compound of the present application in liver microsomes of human, rat and mouse was measured.
(§14) 3.1 A buffer and a liver microsome were prepared into an incubation solution according to the following table:
(§15) 3.2 The following two experiments were carried out respectively: a) incubation system added with coenzyme factor NADPH: 25 μL of NADPH (10 mM) was added into an incubation solution (mainly comprising a liver microsome and a phosphate buffer), so that final concentrations of the liver microsome and the NADPH were 0.5 mg/mL and […] respectively; and b) incubation system without coenzyme factor NADPH: 25 μL of phosphate buffer (100 mM) was added into the incubation solution, so that the final concentration of the liver microsome was 0.5 mg/mL. The incubation systems above were preheated at 37° C. for 10 minutes respectively.
(§16) 3.3 2.5 μL of positive control compound or a tested compound solution (100 μM) was added into the incubation systems described in “step 3.2” above respectively for reaction, and the positive control compound was verapamil (purchased from Sigma), so that a final concentration of the tested compound of the present application or the positive control compound was 1 μM. The incubation solution added with the compound was incubated in water at 37° C. in batches.
(§17) 3.4 30 μL of aliquot was taken from a reaction solution after 0.5 minute, 5 minutes, 15 minutes, 30 minutes and 45 minutes respectively, and the reaction was terminated by adding 5 times volume of cold acetonitrile containing 200 nM caffeine and 100 nM tolbutamide. The aliquot was centrifuged at a gravity acceleration of 3,220 g for 40 minutes, and 100 μL of supernatant was mixed with 100 μL of ultrapure water, and then used for LC-MS/MS analysis.
(§18) A peak area was determined by an extracted ion chromatogram. A slope value k was determined by linear regression of a remaining percentage of a parent drug relative to […] an incubation time curve.
(§19) In-vitro half-life periods (t1/2) were respectively calculated and determined according to the slope value, and an average value of the in-vitro half-life periods was converted into an in-vitro intrinsic clearance rate (CLint, represented by μL/min/mg protein).

[2] = Stability test in liver microsomes, human; format: in vitro ADME; details: for half-life at 1 μM: 0.5 mg/mL
Description: as §13, §14, §15, §16, §17, §18, §19

Sequence of TRKA(G595R) (P04629 33-796 G595R): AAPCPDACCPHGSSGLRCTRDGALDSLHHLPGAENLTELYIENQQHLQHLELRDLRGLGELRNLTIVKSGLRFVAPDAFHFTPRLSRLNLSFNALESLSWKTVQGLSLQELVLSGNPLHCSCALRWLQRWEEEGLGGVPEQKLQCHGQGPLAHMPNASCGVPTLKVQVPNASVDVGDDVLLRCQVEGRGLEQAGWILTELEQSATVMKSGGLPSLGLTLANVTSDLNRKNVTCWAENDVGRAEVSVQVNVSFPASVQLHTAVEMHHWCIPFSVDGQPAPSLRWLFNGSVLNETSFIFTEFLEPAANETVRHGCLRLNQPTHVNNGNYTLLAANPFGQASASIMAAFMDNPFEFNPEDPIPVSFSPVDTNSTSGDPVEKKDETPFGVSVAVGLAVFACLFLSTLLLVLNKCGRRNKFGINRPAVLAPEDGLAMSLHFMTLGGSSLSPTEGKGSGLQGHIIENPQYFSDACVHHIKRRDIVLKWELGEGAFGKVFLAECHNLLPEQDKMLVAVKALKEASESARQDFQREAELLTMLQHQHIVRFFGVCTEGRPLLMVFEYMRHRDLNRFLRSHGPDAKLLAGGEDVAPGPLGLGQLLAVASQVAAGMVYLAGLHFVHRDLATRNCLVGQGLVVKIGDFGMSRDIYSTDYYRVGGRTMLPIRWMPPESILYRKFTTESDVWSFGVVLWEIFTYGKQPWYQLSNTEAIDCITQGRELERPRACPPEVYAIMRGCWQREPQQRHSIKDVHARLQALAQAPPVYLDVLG
Sequence of TRKa (P04629 33-796): as the sequence (P04629 33-796 G595R) above, with R563G counted along it

Row | IC50 (TRKA(G595R)) [nM] | IC50 (TRKa) [nM] | IC50 (Ba/F3-LMNA-NTRK1-G667S) [nM] | IC50 (Ba/F3-LMNA-NTRK1-F589L) [nM] | IC50 (Ba/F3-LMNA-NTRK1-V573I) [nM] | IC50 (Ba/F3-TEL-NTRK2) [nM] | microsomal CLint at 1 μM [1] [µL/min/mg] | half-life at 1 μM [1] [min] | % Remaining(45 min) [1] [%] | microsomal CLint at 1 μM [2] [µL/min/mg] | half-life at 1 μM [2] [min] | % Remaining(45 min) [2] [%] | SMILES
1 | 0.72 | 0.39 | 2.7 | 6.6 | 0.2 | 0.9 | 78.6 | 17.6 | 16.90 | 92.3 | 15 | 12.43 | O=C1N[C@H]2C[C@H](C2)Oc2ncc(F)cc2[C@H]2CCCN2c2ccn3ncc1c3n2 (stereo in doubt) [Positive control 1, reference compound]
2 | 0.89 | 0.36 | 8.4 | 1.2 | 1.1 | 3.4 | 32.1 | 43.2 | 39.49 | 11.1 | 128 | 69.89 | C[C@H]1Nc2nc3c(cnn3cc2F)C(=O)N[C@H]2C[C@H](C2)Oc2ncc(F)cc21 [Example 3, (3^1S,3^3S,6^3E,6^4E,8R)-1^5,6^6-difluoro-8-methyl-2-oxo-4,7-diaza-6(3,5)-pyrazolo[1,5-a]pyrimidine-1(2,3)-pyridine-3(1,3)-cyclobutylcyclooctane-5-one]
3 | 0.97 | 0.43 | 19.9 | 4.5 | 2.3 | 7.3 | 73.2 | 18.9 | 11.64 | 16.4 | 84.8 | 67.39 | C[C@H]1Nc2ccn3ncc(c3n2)C(=O)N[C@H]2C[C@H](C2)Oc2ncc(F)cc21 [Positive control 2, reference compound]

Row | SMILES | IC50 (TRKA(G595R)) [nM] | IC50 (TRKa) [nM] | IC50 (Ba/F3-LMNA-NTRK1-G667S) [nM] | IC50 (Ba/F3-LMNA-NTRK1-F589L) [nM] | IC50 (Ba/F3-LMNA-NTRK1-V573I) [nM] | IC50 (Ba/F3-TEL-NTRK2) [nM] | microsomal CLint at 1 μM [1] [µL/min/mg] | half-life at 1 μM [1] [min] | % Remaining(45 min) [1] [%] | microsomal CLint at 1 μM [2] [µL/min/mg] | half-life at 1 μM [2] [min] | % Remaining(45 min) [2] [%]
4 | O=C1N[C@H]2C[C@H](C2)Oc2ncc(F)cc2[C@H]2CCCN2c2nc3c1cnn3cc2F [Example 2, ((1^3E,1^4E,2^2R,5^1S,5^3S)-1^6,3^5-difluoro-4-oxa-6-aza-1(5,3)-pyrazolo[1,5-a]pyrimidine-3(3,2)-pyridine-2(1,2)-pyrrolidine-5(1,3)-cyclobutancycloheptan-7-one] |  |  | 3.4 | 2.4 | 0.3 | 1.6 | 106 | 13 | 9.22 | 86 | 16.1 | 14.38
